Assay results published in ChEMBL document CHEMBL4190388, “Discovery and Optimization of Indolyl-Containing 4-Hydroxy-2-Pyridone Type II DNA Topoisomerase Inhibitors Active against Multidrug Resistant Gram-negative Bacteria” (J Med Chem, 2018).
Values after ≈ are worked out from the molar mass of the structure shown.

How the values were obtained:
Escherichia coli [1] = assay: Antibacterial activity against fluoroquinolone resistant Escherichia coli SKM18 by CLSI M100-S17 protocol based method; type: functional
Escherichia coli [2] = assay: Antibacterial activity against wild type Escherichia coli ATCC 25922 by CLSI M100-S17 protocol based method; type: functional
[3] = Inhibition of His tagged Escherichia coli ATCC 25922 DNA gyrase A expressed in Escherichia coli BL21 (DE3) pLysS cells assessed as reduction in enzyme-mediated supercoiling of relaxed plasmid DNA pNO1 after 30 mins in presence of biotinylated TFO1 by fluorescence assay
[4] = Inhibition of Escherichia coli DNA topoisomerase 4 assessed as reduction in decatenation activity using kinetoplast concatenated DNA as substrate after 30 mins by picogreen dye based fluorescence assay
Escherichia coli [5] = assay: Antibacterial activity against quinolone resistance Escherichia coli isolate ELZ4251 harboring gyrA/parC mutant by CLSI M100-S17 protocol based method; type: functional
Acinetobacter baumannii [6] = assay: Antibacterial activity against wild type Acinetobacter baumannii ATCC BAA-747 by CLSI M100-S17 protocol based method; type: functional
Acinetobacter baumannii [7] = assay: Antibacterial activity against fluoroquinolone resistant Acinetobacter baumannii isolate MMX2240 by CLSI M100-S17 protocol based method; type: functional
Klebsiella pneumoniae = assay: Antibacterial activity against wild type Klebsiella pneumoniae ATCC 35657 by CLSI M100-S17 protocol based method; type: functional
Escherichia coli [8] = assay: Antibacterial activity against wild type Escherichia coli ATCC 25922 in presence of HSA by CLSI M100-S17 protocol based method; type: functional
Escherichia coli [9] = assay: Selectivity ratio of MIC for wild type Escherichia coli ATCC 25922 in presence of HSA to MIC for wild type Escherichia coli ATCC 25922; type: functional

Row | Structure (SMILES) | MIC (Escherichia coli [1]) [µg/mL] | MIC (Escherichia coli [2]) [µg/mL] | IC50 [3] [nM] | IC50 [4] [nM] | MIC (Escherichia coli [5]) [µg/mL] | MIC (Acinetobacter baumannii [6]) [µg/mL] | MIC (Acinetobacter baumannii [7]) [µg/mL] | MIC (Klebsiella pneumoniae) [µg/mL] | MIC (Escherichia coli [8]) [µg/mL] | Ratio (Escherichia coli [9])
1 | CCNCc1cc2cc3c(cc2n1C)CCCCc1c-3[nH]c(=O)c(C(=O)O)c1O | 3.1 (≈ 7.84 µM) | 0.78 (≈ 1.97 µM) | 800 | 15300 | – | – | – | – | – | –
2 | CNCc1cc2cc3c(cc2n1C)CCCc1c-3[nH]c(=O)c(C(=O)O)c1O | 0.39 (≈ 1.06 µM) | 0.39 (≈ 1.06 µM) | 100 | 3700 | 0.8 (≈ 2.18 µM) | 1.6 (≈ 4.35 µM) | 1.6 (≈ 4.35 µM) | 0.39 (≈ 1.06 µM) | 3.1 | 4 - 16
3 | CNCc1cc2c3c(ccc2n1C)-c1[nH]c(=O)c(C(=O)O)c(O)c1CCC3 | 6.3 (≈ 17.1 µM) | > 12.5 | 1000 | 27900 | – | – | – | – | – | –
4 | CC(C)NCc1cc2cc3c(cc2n1C)SCCc1c-3[nH]c(=O)c(C(=O)O)c1O | 1 (≈ 2.42 µM) | 2 (≈ 4.84 µM) | – | – | 3.1 (≈ 7.5 µM) | 2 (≈ 4.84 µM) | 3.9 (≈ 9.43 µM) | 2 (≈ 4.84 µM) | 15.6 | 8 - 16
